Measured values from patent US10934274B2, “Quinoline derivatives as TAM RTK inhibitors” (Qurient Co., Ltd., priority 2015, dated 2021).
pIC50, pKd: −log10 of the molar value.

Tests used:
Met = biological target: T1, Met (Homo sapiens, UniProt P08581); assay: LanthaScreen Eu kinase binding assay, Met; settings: Tracer 236, read-out: cMet kinase binding activity (Kd)
T1 construct: purchased Life Technologies

Mer = biological target: T2, Mer (Homo sapiens, UniProt Q12866); assay: LanthaScreen Eu kinase binding assay, Mer; settings: Tracer 236
T2 construct: purchased Life Technologies
T2 sequence (Q12866 21-999): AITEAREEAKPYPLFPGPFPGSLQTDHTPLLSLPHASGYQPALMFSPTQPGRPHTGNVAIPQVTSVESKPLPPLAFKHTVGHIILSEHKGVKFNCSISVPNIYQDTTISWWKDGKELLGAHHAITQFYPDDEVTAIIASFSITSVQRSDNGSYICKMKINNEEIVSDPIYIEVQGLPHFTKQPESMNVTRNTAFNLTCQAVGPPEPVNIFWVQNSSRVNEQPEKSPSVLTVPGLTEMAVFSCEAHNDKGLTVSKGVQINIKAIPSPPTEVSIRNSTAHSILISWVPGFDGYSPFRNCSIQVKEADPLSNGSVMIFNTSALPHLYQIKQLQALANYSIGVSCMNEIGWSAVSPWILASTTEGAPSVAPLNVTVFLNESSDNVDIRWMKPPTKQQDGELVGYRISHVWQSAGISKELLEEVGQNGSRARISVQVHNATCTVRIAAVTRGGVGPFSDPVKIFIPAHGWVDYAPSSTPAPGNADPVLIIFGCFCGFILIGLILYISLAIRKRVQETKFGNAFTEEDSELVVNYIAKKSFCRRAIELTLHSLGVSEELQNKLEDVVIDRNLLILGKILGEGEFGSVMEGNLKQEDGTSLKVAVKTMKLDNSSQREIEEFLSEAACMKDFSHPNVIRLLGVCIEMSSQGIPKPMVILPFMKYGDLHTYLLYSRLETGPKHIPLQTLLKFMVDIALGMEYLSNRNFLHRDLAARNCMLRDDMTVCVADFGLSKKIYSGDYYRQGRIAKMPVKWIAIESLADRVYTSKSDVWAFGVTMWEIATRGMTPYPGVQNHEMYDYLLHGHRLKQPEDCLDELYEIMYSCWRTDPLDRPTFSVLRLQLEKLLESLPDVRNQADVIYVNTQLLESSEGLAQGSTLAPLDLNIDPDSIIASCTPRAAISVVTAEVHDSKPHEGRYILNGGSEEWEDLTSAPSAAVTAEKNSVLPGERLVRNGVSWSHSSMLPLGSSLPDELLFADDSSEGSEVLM

[1] = test system: Axl phosphorylation in transiently transfected HEK293T cells; assay: Cellular Axl phosphorylation assay; format: cell-based; settings: Homo sapiens, HEK-293T; HEK293T cells transfected with Axl, 1 hour compound treatment, Phospho-Axl vs Total-Axl
Excerpt: Cell AXL Inhibition Assay Principle
The assay is based on the measurement of the relative amounts of Total-Axl and Phosphorylated-Axl in whole cell lysates of transiently transfected HEK293T cells. This assay is based on application of the Mesoscale western blot and subsequent electro-chemiluminescence detection. Overexpression of Axl-RTK (Receptor tyrosine kinase) by transfection leads to an increase in Axl-trans-autophosphorylation events. Upon compound treatment, the correlation of the measured values of Phosphorylated-Axl and Total Axl indicate the potential of the tested compound to inhibit Axl-phosphorylation at the given compound concentration.
Cell AXL Inhibition Assay Protocol
HEK293T cells (2.5×10^4/well) were plated in a 96 well plate and cells were transfected with pcDNA_DEST_40 Axl or pcDNA_DEST_40 by Superfact reagent (Qiagen. Co. Ltd.). After overnight, the transfection reagent of each well was removed from cells and replaced by fresh prewarmed medium. On the following day, cells were treated with the respective test compound which was diluted by the same method, as in the Axl binding assay using DMSO, for 1 hour
After incubation with the test compounds, cells in the well of the plate were lysed using Tris lysis buffer. The lysate was transferred to two plates (total-Axl and phosphor-Axl) Mesoscale high bind plates and incubated for two hours at room temperature. Afterwards the lysates were removed from the plates and the plates were blocked using Blocking buffer. Subsequently Total-Axl antibody (H-124, Santa Cruz) was transferred to one Mesoscale high bind plate, and Phospho-Axl antibody (AF2228, R&D) to the other plate. After 1 h incubation, Sulpho-Tag antibody (goat anti-rabbit, Mesoscale) was added and again incubated for 1 hour. For the measurement, 2×MSD read buffer was added to each well and the plates were analyzed with a Mesoscale Sector Imager 2400. IC50 (half the maximal inhibitory concentration) was determined relative to between the vehicle (DMSO) control group and minimum control group as transfection of the control vector (pcDNA_DEST_40).
The results after this assay are shown in table 3 for selected compounds.

TYRO3 = biological target: T3, TYRO3 (Homo sapiens, UniProt Q06418); assay: LanthaScreen Eu kinase binding assay, TYRO3; settings: Tracer 236
T3 construct: purchased Life Technologies
T3 sequence (Q06418 41-890): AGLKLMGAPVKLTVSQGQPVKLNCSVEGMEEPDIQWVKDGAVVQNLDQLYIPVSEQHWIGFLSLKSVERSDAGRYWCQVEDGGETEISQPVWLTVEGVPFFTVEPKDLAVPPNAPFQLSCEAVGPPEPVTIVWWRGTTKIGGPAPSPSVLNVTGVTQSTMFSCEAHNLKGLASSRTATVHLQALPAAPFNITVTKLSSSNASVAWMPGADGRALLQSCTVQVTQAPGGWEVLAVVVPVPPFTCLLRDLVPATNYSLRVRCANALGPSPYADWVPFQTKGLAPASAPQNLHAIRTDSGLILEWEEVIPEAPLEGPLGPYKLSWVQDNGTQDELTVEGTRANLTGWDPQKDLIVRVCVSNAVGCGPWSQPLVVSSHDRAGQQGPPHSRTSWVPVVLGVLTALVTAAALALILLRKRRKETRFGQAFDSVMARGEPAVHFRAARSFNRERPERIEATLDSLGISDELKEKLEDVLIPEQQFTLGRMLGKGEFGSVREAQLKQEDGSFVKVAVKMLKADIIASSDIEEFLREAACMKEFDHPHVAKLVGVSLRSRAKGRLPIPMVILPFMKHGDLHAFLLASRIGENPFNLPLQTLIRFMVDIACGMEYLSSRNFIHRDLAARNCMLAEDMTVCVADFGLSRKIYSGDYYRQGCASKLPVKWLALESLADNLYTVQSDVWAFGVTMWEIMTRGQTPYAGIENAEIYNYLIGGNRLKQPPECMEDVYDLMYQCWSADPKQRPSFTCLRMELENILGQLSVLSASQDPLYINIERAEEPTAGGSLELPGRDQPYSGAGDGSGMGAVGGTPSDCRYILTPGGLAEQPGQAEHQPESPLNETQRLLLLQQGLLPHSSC

T1 sequence (P08581 25-1390): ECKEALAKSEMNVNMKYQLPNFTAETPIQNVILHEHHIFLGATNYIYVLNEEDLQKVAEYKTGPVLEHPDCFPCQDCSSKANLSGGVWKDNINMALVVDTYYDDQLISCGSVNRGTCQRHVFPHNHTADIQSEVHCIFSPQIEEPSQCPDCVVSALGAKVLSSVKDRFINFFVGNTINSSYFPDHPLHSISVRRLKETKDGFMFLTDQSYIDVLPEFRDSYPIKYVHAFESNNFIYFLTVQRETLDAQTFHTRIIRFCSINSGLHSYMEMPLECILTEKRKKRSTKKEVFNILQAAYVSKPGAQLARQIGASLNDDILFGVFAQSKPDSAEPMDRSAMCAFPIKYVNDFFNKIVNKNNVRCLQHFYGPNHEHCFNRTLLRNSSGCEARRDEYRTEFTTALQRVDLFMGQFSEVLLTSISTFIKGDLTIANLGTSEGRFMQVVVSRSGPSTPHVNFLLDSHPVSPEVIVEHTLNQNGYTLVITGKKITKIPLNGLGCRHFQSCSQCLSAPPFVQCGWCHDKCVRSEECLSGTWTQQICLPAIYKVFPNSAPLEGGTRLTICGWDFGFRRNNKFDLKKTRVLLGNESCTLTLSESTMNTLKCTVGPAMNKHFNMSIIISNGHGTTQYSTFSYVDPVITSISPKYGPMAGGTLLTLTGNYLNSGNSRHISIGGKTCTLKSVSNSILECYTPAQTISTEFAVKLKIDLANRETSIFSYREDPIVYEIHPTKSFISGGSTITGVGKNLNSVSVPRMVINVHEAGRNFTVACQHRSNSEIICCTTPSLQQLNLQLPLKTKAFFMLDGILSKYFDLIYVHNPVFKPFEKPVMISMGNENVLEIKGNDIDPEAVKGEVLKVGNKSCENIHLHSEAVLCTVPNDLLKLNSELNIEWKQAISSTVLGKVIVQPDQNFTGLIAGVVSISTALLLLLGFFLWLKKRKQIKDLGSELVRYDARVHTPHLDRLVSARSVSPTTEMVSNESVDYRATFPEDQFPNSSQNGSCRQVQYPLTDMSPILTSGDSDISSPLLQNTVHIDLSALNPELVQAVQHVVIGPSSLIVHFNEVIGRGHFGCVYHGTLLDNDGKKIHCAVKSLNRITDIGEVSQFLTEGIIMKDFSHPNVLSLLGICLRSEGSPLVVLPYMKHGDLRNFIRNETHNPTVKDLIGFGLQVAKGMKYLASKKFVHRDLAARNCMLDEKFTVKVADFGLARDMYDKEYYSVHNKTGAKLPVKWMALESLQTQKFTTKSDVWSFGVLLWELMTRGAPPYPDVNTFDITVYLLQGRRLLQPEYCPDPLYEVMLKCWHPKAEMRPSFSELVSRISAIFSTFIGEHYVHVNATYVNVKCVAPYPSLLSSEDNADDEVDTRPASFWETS

C=C(C)c1ccncc1-n1cc(OCC)c(C(=O)Nc2ccc(Oc3ccnc4cc(OC)c(OC)cc34)cn2)n1 [Compound 202]
> 7.00: pKd (Met) | pKd (Mer) | pIC50 [1] | pKd (TYRO3)
